Data reported in PMC9738565, “N1-Benzyl Tryptamine Pan-SHIP1/2 Inhibitors: Synthesis and Preliminary Biological Evaluation as Anti-Tumor Agents” (Molecules, 2022).

Columns and labels:
multiple myeloma = system: multiple myeloma; parameters: method as in PMID 22033675; conditions: xenogeneic multiple myeloma model in mice; cited from earlier work
[1] = system: human blood cell cancers that express SHIP1; parameters: method as in PMID 20200281, PMID 22033675; conditions: cited from earlier work
tSHIP1 = biological target: T1, tSHIP1 (Homo sapiens, UniProt Q92835); assay: Fluorescence Polarization (FP) assay for the detection of PI(3,4)P2, SHIP1; type: biochemical
T1 sequence (Q92835 399-715 limits assumed): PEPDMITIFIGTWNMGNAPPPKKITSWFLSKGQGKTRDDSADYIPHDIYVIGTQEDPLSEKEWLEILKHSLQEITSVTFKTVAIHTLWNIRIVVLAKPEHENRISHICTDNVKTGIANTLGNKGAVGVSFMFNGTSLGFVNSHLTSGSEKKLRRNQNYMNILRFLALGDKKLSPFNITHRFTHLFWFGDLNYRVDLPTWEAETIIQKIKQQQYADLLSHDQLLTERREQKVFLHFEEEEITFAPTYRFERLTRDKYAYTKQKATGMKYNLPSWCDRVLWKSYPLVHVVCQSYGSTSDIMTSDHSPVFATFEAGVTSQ
Protocol: (§1) These compounds were then tested for their activity against the two SHIP paralogs, SHIP1 and SHIP2 in the colorimetric malachite green phosphatase assay. The malachite green assay detects the amount of free phosphate produced from enzymatic reactions with SHIP and an inositol phospholipid substrate.
4.8. Fluorescence Polarization (FP) Assays for the Detection of PI(3,4)P2
The FP Assay for the detection of PI(3,4)P2 (Echelon Biosciences) was performed using tSHIP1 [48] with serial dilutions of the tryptamines in DMSO according to the manufacturer’s recommendation as previously described. […] 40 µL of 4 µM PIP3 (PI(3,4,5)P3-diC8) in Rx buffer is added to each reaction and incubated at 37 °C for 20 min, followed by heat inactivation for 3 min at 95 °C. Reactions were spun down briefly and 10 µL of each reaction was added in 6 replicate wells to a black 384-well plate provided with the FP kit. 10 µL of 1X reconstituted Detector (a phosphoinositide binding protein) in PBS is then added to each well, followed by 5 µL of 1X freshly diluted Probe (in PBS, a fluorophore-labeled phosphoinositide) protected from light. Assay plates are gently tapped to mix, the plate is sealed and spun down briefly and the reaction is allowed to equilibrate for 60 min at room temperature protected from light.

SHIP2 = biological target: T2, SHIP2 (Homo sapiens, UniProt O15357); assay: Malachite green phosphatase release assay, SHIP2; type: biochemical
T2 construct: purchased Echelon Biosciences
T2 sequence (O15357 1-1258): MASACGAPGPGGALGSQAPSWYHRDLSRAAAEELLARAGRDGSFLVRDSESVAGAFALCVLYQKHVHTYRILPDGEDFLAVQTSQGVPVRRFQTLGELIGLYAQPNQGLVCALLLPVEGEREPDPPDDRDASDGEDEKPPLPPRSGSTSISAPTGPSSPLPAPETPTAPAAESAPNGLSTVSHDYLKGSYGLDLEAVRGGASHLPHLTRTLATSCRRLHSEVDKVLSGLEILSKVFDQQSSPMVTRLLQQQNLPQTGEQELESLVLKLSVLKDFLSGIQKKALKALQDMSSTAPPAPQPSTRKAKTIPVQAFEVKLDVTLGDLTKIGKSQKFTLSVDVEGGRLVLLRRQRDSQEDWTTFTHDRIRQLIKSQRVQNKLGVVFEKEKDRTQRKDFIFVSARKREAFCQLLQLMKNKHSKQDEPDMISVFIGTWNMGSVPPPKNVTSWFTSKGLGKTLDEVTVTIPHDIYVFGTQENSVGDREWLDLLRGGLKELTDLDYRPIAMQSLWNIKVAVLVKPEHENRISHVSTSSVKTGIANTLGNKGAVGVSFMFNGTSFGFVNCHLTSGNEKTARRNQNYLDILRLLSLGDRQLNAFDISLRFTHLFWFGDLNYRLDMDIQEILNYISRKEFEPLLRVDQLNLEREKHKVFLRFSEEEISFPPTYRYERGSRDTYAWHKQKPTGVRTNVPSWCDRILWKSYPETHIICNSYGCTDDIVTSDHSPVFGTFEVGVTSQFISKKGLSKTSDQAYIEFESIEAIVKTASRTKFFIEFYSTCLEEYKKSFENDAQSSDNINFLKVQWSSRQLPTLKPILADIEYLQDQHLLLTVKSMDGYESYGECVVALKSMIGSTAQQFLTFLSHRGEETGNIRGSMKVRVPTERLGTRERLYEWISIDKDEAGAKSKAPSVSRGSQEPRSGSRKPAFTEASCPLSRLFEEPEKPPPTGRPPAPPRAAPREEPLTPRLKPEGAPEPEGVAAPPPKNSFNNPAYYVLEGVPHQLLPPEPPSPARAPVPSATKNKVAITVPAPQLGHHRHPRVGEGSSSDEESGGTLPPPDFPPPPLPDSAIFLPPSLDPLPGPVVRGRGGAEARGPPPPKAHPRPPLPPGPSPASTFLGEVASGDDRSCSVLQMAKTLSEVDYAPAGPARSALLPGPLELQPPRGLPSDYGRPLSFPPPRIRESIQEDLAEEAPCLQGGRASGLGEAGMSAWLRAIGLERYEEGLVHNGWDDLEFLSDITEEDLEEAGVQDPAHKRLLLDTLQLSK
Protocol: as §1
(§2) 4.7. Malachite Green Phosphatase Release Assays
(§3) Malachite green assays to monitor phosphatase release (Echelon Biosciences) were performed with recombinant human truncated SHIP1 (tSHIP1) and SHIP2 (Echelon Biosciences). Serial dilutions of the compounds dissolved in DMSO were added to the recombinant enzymes diluted in reaction buffer Rx (50 mM Hepes pH 7.4, 150 mM NaCl, 1 mM MgCl2, 0.25 mM EDTA) in triplicate reaction wells in 96-well plates. After incubation for 2 min at room temperature, 2.5 µL of 1 mM phosphatidylinositol 3,4,5-trisphosphate diC8 (PI(3,4,5)P3-diC8, Echelon Biosciences) was added to each reaction to a final concentration of 100 µM in a final volume of 25 µL /well. Following a 20 min incubation at 37 °C, 100 µL of Malachite Green solution (Echelon Biosciences) was added to each well and the plates were incubated at room temperature in the dark for 15 min. Plates were then read at 620 nm on a plate reader (Synergy 2, BioTek, Santa Clara, CA, USA). In addition, 3α-Aminocholestane, a known SHIP1 inhibitor, and AS1949490, a known SHIP2 inhibitor, were used as positive controls.

multiple myeloma cells = system: multiple myeloma cells; parameters: method as in PMID 22033675; conditions: followed by caspase cascade activation leading to extensive apoptosis; cited from earlier work
[2] = system: recombinant human truncated SHIP1 (tSHIP1); assay: Malachite green phosphatase release assay, SHIP1; type: biochemical; conditions: for Malachite (250 µM) % Inhib. SHIP1: 250 µM compound; for Malachite (500 µM) % Inhib. SHIP1: 500 µM compound; for activity against SHIP1 (in words): summary of Table 1
Protocol: These compounds were then tested for their activity against the two SHIP paralogs, SHIP1 and SHIP2 in the colorimetric malachite green phosphatase assay. The malachite green assay detects the amount of free phosphate produced from enzymatic reactions with SHIP and an inositol phospholipid substrate. The Malachite assay is useful for ruling out compounds that are fluorescent or have aggregation issues and is inexpensive, so it was utilized as the primary screen even though it is not as sensitive as other assays.
as §2, §3

OCRL = system: OCRL; parameters: method as in PMID 22033675; conditions: cited from earlier work
[3] = system: several cell lines, especially breast cancer cells; parameters: method as in PMID 22033675, PMID 27716613; conditions: cited from earlier work
mice = assay: Side effect observed in mice; conditions: in vivo
[4] = system: leukemia cell lines (NB4, HSB2, K562 and 697-Pre-B), multiple myeloma cell line OPM-2, breast cancer cell lines MBA-MD-231 and MCF-7; assay: MTT cell viability assay on cancer cell lines; type: cell-based; conditions: Figure 3
Description: . The assay monitors the ability of NADPH-dependent cellular oxidoreductases to reduce the dye MTT (3-(4,5-dimethylthiazol-2-yl)-2,5-diphenyltetrazolium bromide), which when reduced produces a purple color that can be easily quantified. This assay is often used to determine cell viability. […] All of these cell lines express SHIP1 due to their hematopoietic origin, as SHIP1 is selectively expressed in blood and bone marrow cells. Cytotoxicity was also found on the breast cancer cell lines MBA-MD-231 and MCF-7, which is likely due to the inhibition of SHIP2. […]. 4.9. MTT Cell Viability Assay
Cells were treated in triplicate or more with increasing concentrations of the compound. Cell viability was determined with a Cell Counting Kit (Dojindo Molecular Technologies, Rockville, MD, USA) per the manufacturer’s instructions. The […] (OD) of compound-treated cells was divided by the OD of their vehicle control, and the viability was expressed as a percentage of untreated cells. Results are expressed as mean ± standard error of the mean (SEM) of three individual experiments. […]

CC(C)CCC[C@@H](C)[C@H]1CC[C@H]2[C@@H]3CC[C@H]4C[C@H](N)CC[C@]4(C)[C@H]3CC[C@]12C [Compound 3AC, 3α-aminocholestane]
protection from multiple myeloma growth (multiple myeloma): effective in protecting the majority of mice | Akt activation and apoptosis [1]: reduces Akt activation and promotes apoptosis

CSc1ccc2c(c1)c(CCN)c(C)n2Cc1ccccc1Cl.Cl [Compound 1, 2-(1-(2-Chlorobenzyl)-2-methyl-5-(methylthio)-1H-indol-3-yl)ethanaminium chloride]
IC50 (tSHIP1): 5 µM | inhibition at 250 µM (SHIP2; 250 µM compound, read-out: Malachite (250 µM) % Inhib. SHIP2): 7% | inhibition at 500 µM (SHIP2; 500 µM compound, read-out: Malachite (500 µM) % Inhib. SHIP2): 59% | activity against SHIP2 (in words) (SHIP2; summary of Table 1): significant activity | cell cycle effect in multiple myeloma cells (multiple myeloma cells): G2/M cell cycle arrest | Malachite (250 µM) % Inhib. SHIP1 [2]: 7% | Malachite (500 µM) % Inhib. SHIP1 [2]: 51% | activity against SHIP1 (in words) [2]: significant activity | effect on OCRL (OCRL): no effect | antitumor effects on cell lines [3]: significant antitumor effects | psychotropic effect in mice (mice): induced a psychotropic effect

CSc1ccc2c(c1)c(CCN)c(C)n2Cc1ccc(Cl)cc1Cl.Cl [Compound 7d, 2-(1-(2,4-Dichlorobenzyl)-2-methyl-5-(methylthio)-1H-indol-3-yl)ethanaminium chloride]
cytotoxicity on cancer cell lines (in words) [4]: greatest cytotoxicity | Malachite (250 µM) % Inhib. SHIP1 [2]: 32% | Malachite (500 µM) % Inhib. SHIP1 [2]: 52% | activity against SHIP1 (in words) [2]: significant activity
